How the values were obtained:
Assay in all cases: filter binding kinase assay
Type in all cases: biochemical
[1] = biological target: T1, RIPK2 (Homo sapiens, UniProt O43353); settings: derived from % inhibition at 1 μM
T1 construct: purchased
Description: (§1) All kinase assays were carried out using the Multidrop 384 from Thermo-Fisher at room temperature in a total assay volume of 25.5 μl. 15 μl of an enzyme mix comprising enzyme and substrate in buffer are added to the test batch comprising either 0.5 μl of test substance, DMSO control or empty container. Test substances are pre-incubated in the presence of the enzyme and substrate for 5 minutes before the reaction is initiated by addition of 10 μl of ATP (concentration kinase-dependent of […]). The reaction is terminated by addition of 5 μl of orthophosphoric acid (50 mM). The test containers are then transferred onto P81 Unifilter plates by means of a “Packard Harvester” and dried in air. The dry Unifilter plates are sealed after the addition of MicroScint O, and the radioactivity is determined in a Packard Topcount NXT.

[2] = biological target: T2, CSNK1D (Homo sapiens, UniProt P48730); settings: derived from % inhibition at 1 μM
T2 construct: purchased
Description: as §1

[3] = biological target: T3, HIPK3 (Homo sapiens, UniProt Q9H422); settings: derived from % inhibition at 1 μM
T3 construct: purchased
Description: as §1

[4] = biological target: T4, CHEK1 (CHK1) (Homo sapiens, UniProt O14757); settings: for IC50: derived from % inhibition at 1 μM
T4 construct: purchased
T4 sequence (O14757 1-476): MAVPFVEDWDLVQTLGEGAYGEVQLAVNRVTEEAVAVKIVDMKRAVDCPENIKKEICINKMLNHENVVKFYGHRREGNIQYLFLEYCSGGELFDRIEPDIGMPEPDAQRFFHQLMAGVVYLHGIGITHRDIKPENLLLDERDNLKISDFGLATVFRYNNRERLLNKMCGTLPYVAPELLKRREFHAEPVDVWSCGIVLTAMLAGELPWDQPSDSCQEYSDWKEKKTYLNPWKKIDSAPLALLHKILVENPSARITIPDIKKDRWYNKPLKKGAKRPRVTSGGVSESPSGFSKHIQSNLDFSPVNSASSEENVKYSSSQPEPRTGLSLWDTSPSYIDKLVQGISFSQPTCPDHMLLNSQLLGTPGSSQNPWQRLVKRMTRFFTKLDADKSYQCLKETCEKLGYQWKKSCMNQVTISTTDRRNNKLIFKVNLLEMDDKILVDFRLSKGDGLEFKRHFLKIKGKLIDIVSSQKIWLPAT
Description: as §1

[5] = biological target: T5, PKN2 (PRK2) (Homo sapiens, UniProt Q16513); settings: for IC50: derived from % inhibition at 1 μM
T5 construct: purchased
Description: as §1

[6] = biological target: T6, CSK (Homo sapiens, UniProt P41240); settings: derived from % inhibition at 1 μM
T6 construct: purchased
Description: as §1

[7] = biological target: T7, MAP3K11 (MLK3) (Homo sapiens, UniProt Q16584); settings: for IC50: derived from % inhibition at 1 μM
T7 construct: purchased
Description: as §1

[8] = biological target: T8, DYRK1A (Homo sapiens, UniProt Q13627); settings: derived from % inhibition at 1 μM
T8 construct: purchased
Description: as §1

[9] = biological target: T9, PRKD2 (Homo sapiens, UniProt Q9BZL6); settings: derived from % inhibition at 1 μM
T9 construct: purchased
T9 sequence (Q9BZL6 1-878): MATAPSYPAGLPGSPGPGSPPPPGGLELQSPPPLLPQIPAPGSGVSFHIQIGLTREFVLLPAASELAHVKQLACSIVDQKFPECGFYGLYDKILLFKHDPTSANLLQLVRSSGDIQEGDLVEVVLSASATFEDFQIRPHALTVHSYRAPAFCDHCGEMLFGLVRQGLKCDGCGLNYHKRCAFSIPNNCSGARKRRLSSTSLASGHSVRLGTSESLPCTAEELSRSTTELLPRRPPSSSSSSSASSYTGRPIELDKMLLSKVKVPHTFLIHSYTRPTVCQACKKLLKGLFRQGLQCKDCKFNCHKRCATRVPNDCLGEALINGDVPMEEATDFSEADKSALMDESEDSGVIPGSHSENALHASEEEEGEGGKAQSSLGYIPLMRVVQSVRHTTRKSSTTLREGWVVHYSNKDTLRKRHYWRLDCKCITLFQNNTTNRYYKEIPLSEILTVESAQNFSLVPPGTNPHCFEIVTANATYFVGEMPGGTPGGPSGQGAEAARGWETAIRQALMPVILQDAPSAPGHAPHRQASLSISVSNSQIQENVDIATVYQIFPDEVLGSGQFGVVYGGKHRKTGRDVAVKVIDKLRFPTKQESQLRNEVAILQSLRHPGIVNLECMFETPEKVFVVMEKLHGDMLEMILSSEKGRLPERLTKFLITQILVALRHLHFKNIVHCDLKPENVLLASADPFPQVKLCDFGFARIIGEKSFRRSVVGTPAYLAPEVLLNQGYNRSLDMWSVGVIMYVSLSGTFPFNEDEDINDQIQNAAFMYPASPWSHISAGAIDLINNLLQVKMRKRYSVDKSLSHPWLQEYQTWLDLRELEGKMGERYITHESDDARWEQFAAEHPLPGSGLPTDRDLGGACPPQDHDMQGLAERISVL
Description: as §1

[10] = biological target: T10, MAPK13 (Homo sapiens, UniProt O15264); settings: derived from % inhibition at 1 μM
T10 construct: purchased
T10 sequence (O15264 1-365): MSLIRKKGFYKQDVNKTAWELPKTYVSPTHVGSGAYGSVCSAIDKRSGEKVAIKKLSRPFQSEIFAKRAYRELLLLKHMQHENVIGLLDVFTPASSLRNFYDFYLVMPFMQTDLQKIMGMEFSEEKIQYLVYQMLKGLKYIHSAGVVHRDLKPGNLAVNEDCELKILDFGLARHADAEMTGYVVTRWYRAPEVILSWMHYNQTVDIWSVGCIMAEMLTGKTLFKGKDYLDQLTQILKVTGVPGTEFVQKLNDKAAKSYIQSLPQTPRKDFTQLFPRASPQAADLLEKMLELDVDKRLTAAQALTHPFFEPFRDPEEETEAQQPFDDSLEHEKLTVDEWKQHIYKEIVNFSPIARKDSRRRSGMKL
Description: as §1

[11] = biological target: T11, MKNK1 (Homo sapiens, UniProt Q9BUB5); settings: derived from % inhibition at 1 μM
T11 construct: purchased
Description: as §1

[12] = biological target: T12, ERBB4 (Homo sapiens, UniProt Q15303); settings: derived from % inhibition at 1 μM
T12 construct: purchased
Description: as §1

[13] = biological target: T13, MET (Homo sapiens, UniProt P08581); settings: derived from % inhibition at 1 μM
T13 construct: 6His (N); purchased Upstate 14-526; host or cells: insect cells (Sf21; S. frugiperda), baculovirus
Description: as §1

[14] = biological target: T14, GSK3B (GSK3b) (Homo sapiens, UniProt P49841); settings: for IC50: derived from % inhibition at 1 μM
T14 construct: purchased
Description: as §1

T12 sequence (Q15303 26-1308, species assumed): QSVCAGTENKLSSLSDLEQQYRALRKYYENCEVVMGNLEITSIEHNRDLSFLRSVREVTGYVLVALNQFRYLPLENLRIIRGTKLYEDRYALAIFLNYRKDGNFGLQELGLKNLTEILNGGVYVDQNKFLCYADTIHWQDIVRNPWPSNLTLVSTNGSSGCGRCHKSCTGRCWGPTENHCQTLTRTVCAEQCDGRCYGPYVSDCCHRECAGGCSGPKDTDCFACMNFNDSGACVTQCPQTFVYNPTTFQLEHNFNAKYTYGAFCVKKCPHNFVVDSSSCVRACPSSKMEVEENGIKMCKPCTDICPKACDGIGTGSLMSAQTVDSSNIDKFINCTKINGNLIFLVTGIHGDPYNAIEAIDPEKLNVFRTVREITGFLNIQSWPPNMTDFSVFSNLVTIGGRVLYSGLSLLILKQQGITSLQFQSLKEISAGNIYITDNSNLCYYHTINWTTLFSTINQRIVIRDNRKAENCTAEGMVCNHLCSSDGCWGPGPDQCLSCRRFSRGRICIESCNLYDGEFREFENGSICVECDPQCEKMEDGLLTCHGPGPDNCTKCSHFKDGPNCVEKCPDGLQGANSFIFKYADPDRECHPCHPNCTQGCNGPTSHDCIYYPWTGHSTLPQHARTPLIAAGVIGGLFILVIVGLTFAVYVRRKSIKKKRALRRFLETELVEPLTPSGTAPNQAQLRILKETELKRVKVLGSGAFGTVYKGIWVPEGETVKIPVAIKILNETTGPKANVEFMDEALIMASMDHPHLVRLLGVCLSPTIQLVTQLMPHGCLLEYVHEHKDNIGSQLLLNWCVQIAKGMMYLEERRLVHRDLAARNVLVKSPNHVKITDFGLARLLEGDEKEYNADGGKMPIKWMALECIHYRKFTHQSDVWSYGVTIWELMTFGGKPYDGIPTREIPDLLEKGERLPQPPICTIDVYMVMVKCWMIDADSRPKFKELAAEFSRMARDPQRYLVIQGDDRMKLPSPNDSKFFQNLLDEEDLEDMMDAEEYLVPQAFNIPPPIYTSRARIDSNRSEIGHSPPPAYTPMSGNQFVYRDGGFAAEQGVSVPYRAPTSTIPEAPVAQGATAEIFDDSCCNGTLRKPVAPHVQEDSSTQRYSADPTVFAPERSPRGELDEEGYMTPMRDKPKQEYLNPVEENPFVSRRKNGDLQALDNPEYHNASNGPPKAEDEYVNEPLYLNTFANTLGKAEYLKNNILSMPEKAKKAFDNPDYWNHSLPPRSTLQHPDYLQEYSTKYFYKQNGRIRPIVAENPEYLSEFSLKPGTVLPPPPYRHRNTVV
T3 sequence (Q9H422 whole entry, species assumed): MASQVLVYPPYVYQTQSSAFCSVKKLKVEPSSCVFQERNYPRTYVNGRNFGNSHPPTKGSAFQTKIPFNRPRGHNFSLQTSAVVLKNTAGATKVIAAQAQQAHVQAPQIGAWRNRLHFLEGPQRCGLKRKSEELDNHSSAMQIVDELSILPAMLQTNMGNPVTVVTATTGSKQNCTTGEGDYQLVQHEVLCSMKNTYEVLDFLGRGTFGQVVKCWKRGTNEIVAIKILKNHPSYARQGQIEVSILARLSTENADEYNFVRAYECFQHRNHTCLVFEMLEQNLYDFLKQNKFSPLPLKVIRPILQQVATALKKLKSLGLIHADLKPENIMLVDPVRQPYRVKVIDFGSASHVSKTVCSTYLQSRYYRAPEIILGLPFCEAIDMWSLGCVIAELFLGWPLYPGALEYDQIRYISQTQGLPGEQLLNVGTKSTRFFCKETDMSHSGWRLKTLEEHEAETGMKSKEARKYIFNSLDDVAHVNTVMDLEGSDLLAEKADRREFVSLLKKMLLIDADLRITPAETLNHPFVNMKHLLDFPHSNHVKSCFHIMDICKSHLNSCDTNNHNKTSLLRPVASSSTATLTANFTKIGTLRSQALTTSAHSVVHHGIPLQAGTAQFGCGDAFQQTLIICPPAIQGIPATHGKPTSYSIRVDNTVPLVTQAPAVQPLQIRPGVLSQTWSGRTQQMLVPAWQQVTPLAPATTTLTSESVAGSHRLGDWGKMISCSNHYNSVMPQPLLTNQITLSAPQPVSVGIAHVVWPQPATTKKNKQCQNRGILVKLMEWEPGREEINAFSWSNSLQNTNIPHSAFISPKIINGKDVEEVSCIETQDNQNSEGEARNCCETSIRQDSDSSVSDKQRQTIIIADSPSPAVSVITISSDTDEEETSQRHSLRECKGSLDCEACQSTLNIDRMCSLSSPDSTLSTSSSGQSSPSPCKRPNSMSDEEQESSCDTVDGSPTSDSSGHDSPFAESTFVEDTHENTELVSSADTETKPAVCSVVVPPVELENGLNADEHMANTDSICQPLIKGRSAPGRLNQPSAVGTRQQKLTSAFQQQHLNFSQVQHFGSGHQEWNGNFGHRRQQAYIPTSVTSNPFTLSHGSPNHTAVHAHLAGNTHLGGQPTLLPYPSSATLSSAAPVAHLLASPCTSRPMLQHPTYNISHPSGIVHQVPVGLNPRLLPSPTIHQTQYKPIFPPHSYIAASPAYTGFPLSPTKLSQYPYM
T2 sequence (P48730 whole entry, species assumed): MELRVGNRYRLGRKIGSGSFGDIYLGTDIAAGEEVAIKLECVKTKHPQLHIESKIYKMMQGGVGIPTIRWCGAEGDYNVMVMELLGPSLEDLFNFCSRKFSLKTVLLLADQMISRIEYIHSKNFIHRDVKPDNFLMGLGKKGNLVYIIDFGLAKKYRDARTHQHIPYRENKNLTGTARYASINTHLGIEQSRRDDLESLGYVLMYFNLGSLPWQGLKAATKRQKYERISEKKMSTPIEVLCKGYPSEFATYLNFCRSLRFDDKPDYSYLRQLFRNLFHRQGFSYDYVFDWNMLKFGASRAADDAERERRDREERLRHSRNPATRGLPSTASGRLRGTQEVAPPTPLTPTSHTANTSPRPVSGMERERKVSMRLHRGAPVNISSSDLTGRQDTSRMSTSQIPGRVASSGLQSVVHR
T5 sequence (Q16513 whole entry, species assumed): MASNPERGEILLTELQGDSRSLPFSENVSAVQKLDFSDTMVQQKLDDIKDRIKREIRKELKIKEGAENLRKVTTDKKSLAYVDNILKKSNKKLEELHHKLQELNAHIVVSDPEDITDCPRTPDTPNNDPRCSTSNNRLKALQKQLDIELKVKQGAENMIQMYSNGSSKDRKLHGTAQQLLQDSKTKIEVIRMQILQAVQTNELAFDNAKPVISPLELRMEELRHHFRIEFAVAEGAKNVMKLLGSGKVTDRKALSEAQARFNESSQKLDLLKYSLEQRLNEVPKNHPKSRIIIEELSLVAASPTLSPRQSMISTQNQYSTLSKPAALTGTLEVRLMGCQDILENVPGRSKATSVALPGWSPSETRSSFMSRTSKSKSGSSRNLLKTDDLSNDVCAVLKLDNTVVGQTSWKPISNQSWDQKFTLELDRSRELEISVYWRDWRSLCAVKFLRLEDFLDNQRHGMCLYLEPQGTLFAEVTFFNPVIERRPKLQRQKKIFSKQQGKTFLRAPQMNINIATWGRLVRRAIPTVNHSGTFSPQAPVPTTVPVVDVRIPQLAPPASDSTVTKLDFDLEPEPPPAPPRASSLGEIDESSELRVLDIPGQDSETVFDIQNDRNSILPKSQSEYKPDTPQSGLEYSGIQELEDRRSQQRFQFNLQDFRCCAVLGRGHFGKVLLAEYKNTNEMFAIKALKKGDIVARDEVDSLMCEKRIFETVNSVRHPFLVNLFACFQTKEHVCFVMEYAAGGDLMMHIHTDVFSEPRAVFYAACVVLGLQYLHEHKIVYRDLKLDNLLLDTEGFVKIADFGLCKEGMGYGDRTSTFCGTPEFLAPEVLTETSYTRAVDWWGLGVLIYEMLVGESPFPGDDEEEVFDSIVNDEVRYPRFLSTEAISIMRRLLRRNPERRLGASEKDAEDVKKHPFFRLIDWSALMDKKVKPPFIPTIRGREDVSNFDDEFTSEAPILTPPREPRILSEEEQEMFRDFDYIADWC
T7 sequence (Q16584 whole entry, species assumed): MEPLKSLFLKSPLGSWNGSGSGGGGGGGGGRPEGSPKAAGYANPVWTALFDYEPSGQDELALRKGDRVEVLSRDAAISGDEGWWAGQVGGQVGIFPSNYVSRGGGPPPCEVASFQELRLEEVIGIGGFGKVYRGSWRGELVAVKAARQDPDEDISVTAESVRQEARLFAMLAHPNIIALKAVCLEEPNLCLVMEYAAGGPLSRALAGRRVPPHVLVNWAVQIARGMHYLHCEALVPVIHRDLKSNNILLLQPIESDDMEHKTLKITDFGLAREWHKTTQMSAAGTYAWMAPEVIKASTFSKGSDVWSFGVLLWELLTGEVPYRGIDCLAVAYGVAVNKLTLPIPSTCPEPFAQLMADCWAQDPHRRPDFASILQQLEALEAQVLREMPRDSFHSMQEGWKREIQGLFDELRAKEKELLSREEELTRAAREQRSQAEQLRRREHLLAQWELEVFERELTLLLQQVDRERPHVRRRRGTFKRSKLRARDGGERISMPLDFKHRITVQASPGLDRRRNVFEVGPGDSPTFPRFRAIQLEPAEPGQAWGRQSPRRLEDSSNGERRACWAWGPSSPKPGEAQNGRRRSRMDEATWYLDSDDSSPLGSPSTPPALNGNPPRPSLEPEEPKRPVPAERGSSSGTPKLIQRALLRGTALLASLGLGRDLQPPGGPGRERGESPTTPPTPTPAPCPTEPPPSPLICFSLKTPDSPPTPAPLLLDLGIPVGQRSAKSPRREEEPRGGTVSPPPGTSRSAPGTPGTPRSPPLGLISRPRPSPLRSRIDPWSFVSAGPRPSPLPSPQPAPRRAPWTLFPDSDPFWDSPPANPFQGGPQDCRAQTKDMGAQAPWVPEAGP

CC(C)(C)OC(=O)Nc1nc(-c2ccncc2)sc1C#CCN1CCOCC1 [Compound A25, tert-butyl[5-(3-morpholin-4-ylprop-1-ynyl)-2-pyridin-4-ylthiazol-4-yl]-carbamate]
IC50 [1]: > 1 µM | IC50 [2]: > 1 µM | IC50 [3]: 10 to 100 µM | IC50 [4]: 10 to 100 µM | IC50 [5]: > 1 µM | IC50 [6]: > 1 µM | IC50 [7]: > 1 µM | IC50 [8]: > 1 µM | IC50 [9]: > 1 µM | IC50 [10]: > 1 µM | IC50 [11]: > 1 µM | IC50 [12]: > 1 µM | IC50 [13]: > 1 µM | IC50 [14]: > 1 µM

c1ccc(Cc2c[nH]c3ncsc23)cc1 [Compound A7, 6-benzyl-4H-pyrrolo[2,3-d]thiazole]
IC50 [1]: 10 to 100 µM | IC50 [2]: 1 to 10 µM | IC50 [3]: 1 to 10 µM | IC50 [4]: > 1 µM | IC50 [5]: 1 to 10 µM | IC50 [6]: 1 to 10 µM | IC50 [7]: 10 to 100 µM | IC50 [8]: > 1 µM | IC50 [9]: 1 to 10 µM | IC50 [10]: 1 to 10 µM | IC50 [11]: > 1 µM | IC50 [12]: 10 to 100 µM | IC50 [13]: 1 to 10 µM | IC50 [14]: 1 to 10 µM

Nc1ncsc1C#Cc1cnc2[nH]ccc2c1 [Compound A22, 5-(1H-pyrrolo[2,3-b]pyridin-5-ylethynyl)thiazol-4-ylamine]
IC50 [1]: 1 to 10 µM | IC50 [2]: 10 to 100 µM | IC50 [3]: 1 to 10 µM | IC50 [4]: 0.01 to 1 µM | remaining activity at 1 µM ([4]; read-out: residual kinase activity CHK1): 40% | IC50 [5]: 0.01 to 1 µM | remaining activity at 1 µM ([5]; read-out: residual kinase activity PRK2): 38% | IC50 [6]: 10 to 100 µM | IC50 [7]: 0.01 to 1 µM | remaining activity at 1 µM ([7]; read-out: residual kinase activity MLK3): 23% | IC50 [8]: > 1 µM | IC50 [9]: > 1 µM | IC50 [10]: 10 to 100 µM | IC50 [11]: 10 to 100 µM | IC50 [12]: > 1 µM | IC50 [13]: > 1 µM | IC50 [14]: 0.01 to 1 µM | remaining activity at 1 µM ([14]; read-out: residual kinase activity GSK3b): 9%

Nc1ncsc1C#Cc1cccc(O)c1 [Compound A27, 3-(4-aminothiazol-5-ylethynyl)phenol]
IC50 [1]: 1 to 10 µM | IC50 [2]: 1 to 10 µM | IC50 [3]: 1 to 10 µM | IC50 [4]: 10 to 100 µM | IC50 [5]: 10 to 100 µM | IC50 [6]: 10 to 100 µM | IC50 [7]: 10 to 100 µM | IC50 [8]: 10 to 100 µM | IC50 [9]: 1 to 10 µM | IC50 [10]: 1 to 10 µM | IC50 [11]: 10 to 100 µM | IC50 [12]: 1 to 10 µM | IC50 [13]: 10 to 100 µM | IC50 [14]: 1 to 10 µM

CC(C)(C)OC(=O)Nc1ncsc1C#CCN1C(=O)c2ccccc2C1=O [Compound A26, tert-butyl{5-[3-(1,3-dioxo-1,3-dihydroisoindol-2-yl)prop-1-ynyl]-thiazol-4-yl}carbamate]
IC50 [1]: 10 to 100 µM | IC50 [2]: > 1 µM | IC50 [3]: 10 to 100 µM | IC50 [4]: 10 to 100 µM | IC50 [5]: 1 to 10 µM | IC50 [6]: 10 to 100 µM | IC50 [7]: 1 to 10 µM | IC50 [8]: 10 to 100 µM | IC50 [9]: > 1 µM | IC50 [10]: 10 to 100 µM | IC50 [11]: > 1 µM | IC50 [12]: > 1 µM | IC50 [13]: > 1 µM | IC50 [14]: 1 to 10 µM

From US8703961B2, “Thiazole derivatives for the treatment of diseases such as cancer” (Merck Patent GmbH, priority 2009, dated 2014)
